Patent US10071164B2, “Estrogen-related receptor alpha based protac compounds and associated methods of use” (Yale University, priority 2014, dated 2018)

biological target: T1, ERRα (Homo sapiens, UniProt P11474); assay: ERRα degradation in MCF-7 cells; type: cell-based; parameters: endogenous in cells; host or cells: MCF-7 (ATCC); conditions: MCF7, column A, read-out: ERRα Degradation Dmax (Estimated) MCF-7 cells
T1 sequence (P11474 1-423): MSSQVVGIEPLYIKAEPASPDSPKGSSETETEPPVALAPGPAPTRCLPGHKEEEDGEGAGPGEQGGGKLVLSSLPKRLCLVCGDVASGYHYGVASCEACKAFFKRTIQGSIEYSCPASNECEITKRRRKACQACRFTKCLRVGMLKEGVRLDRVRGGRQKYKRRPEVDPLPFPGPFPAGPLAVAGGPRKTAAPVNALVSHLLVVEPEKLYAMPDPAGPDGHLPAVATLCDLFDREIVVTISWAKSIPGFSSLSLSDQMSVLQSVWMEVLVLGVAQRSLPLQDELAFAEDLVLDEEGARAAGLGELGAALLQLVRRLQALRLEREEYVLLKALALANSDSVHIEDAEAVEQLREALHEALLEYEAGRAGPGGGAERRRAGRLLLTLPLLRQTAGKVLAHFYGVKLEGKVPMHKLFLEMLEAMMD
Protocol: Human MDA-MB-231 and MCF7 cells (purchased authenticated ATCC cell lines) were cultured in complete growth medium (Dulbecco's modified Eagle's medium (DMEM)/F12 supplemented with 10% FBS; Life Technologies) and grown at 37° C. with 5% CO2. THP-1 cells (ATCC) were cultured in RPMI 1640+10% FBS and were grown at 37° C. with 5% CO2. For cellular degradation of ERRα, MCF7 cells were seeded in a 24-well plate at 70% confluency, allowed to attach overnight, and incubated with the indicated compounds. For cellular degradation of RIPK2, 5×10^6 cells were incubated with the indicated compounds. When indicated, a 1-hour pretreatment with 1 μM epoxomicin was performed before the addition of compound. When indicated for washout studies, after PROTAC treatment, cells were washed repeatedly with PBS and incubated with complete medium for the indicated time before harvesting. The THP1 cell line has been authenticated using the Promega GenePrint10 kit to generate a STR Profile for comparison to the expected profile reported by ATCC. Cells were also routinely tested and negative for mycoplasma. Cell lines were routinely tested for mycoplasma contamination at Clongen (Gaithersburg, Md.).
Total protein concentrations of tissue homogenates and cell lysates were determined by Pierce BCA kit (Thermo Fisher). Homogenates or lysates were separated on 4-12% NuPAGE gels (Life Technologies) and transferred onto PVDF membranes (iBlot; Life Technologies). Membranes were blocked with 5% non-fat milk in TBST (0.1% Tween-20 in Tris-Buffered Saline) before overnight incubation with indicated antibodies. After incubation with the appropriate horseradish peroxidase-conjugated secondary antibodies, the bands were visualized by enhanced chemiluminescence (Pierce West Femto ECL). The intensity of the bands was quantified with Bio-Rad Quantity One software. When the IRDye secondary antibodies were used, the infrared signal was detected using an Odyssey scanner (Li-COR Biosciences) and the densitometry was performed using the Odyssey 2.1 Analyser software. The IRDye secondary antibodies anti-mouse (926-32212) and anti-mouse (926-68072) were purchased from Li-COR Biosciences and used at a 1:5,000 dilution. Statistical analysis of tissue densitometry levels were performed with GraphPad Prism software using the indicated statistical test.
(§1) Using the methods as described herein, the following exemplary PROTAC compounds were prepared (see Table below). The exemplary compounds were also assayed for their ability to effectuate the degration of ERRα in either MCF-7 cells or ST-486 cells. Thus, in certain embodiments, the description provides the compounds below, including compositions comprising effective amount of a compound as listed below or a derivative, analog, or a prodrug of the same, in combination with at least one of a pharmaceutically acceptable carrier, another active agent, including a second PROTAC molecule as described herein or a combination thereof. In additional embodiments, the disclosure provides a method of treating a disease or condition in a subject in need thereof, comprising administering a composition comprising an effective amount of a compound listed below, wherein the composition is effective for treating or ameliorating a symptom of the disease or condition.
(§2) Legend for following table: A=ERRα Degradation Dmax (Estimated) MCF-7 cells; B=ERRα Degradation DC50 (Estimated) MCF-7 cells; C=ERRα Degradation Dmax (Estimated) ST-486 cells; D=ERRα Degradation DC50 (Estimated) ST-486 cells

Compound | Dmax [%]
COc1cc(/C=C2\SC(=O)N(CCCCOCCCCOCCCCOc3cc(-c4scnc4C)ccc3CNC(=O)[C@@H]3C[C@@H](O)CN3C(=O)[C@H](C(C)C)N3Cc4ccccc4C3=O)C2=O)ccc1Oc1ccc(C#N)cc1C(F)(F)F [ARV N000233] | 60
COc1cc(/C=C2\SC(=O)N(CCOCCOCCCCCOCCOCCOc3cc(-c4scnc4C)ccc3CNC(=O)[C@@H]3C[C@@H](O)CN3C(=O)[C@H](C(C)C)N3Cc4ccccc4C3=O)C2=O)ccc1Oc1ccc(C#N)cc1C(F)(F)F [ARV N000231] | 98
COc1cc(/C=C2\SC(=O)N(CCOCCOCCOCCOc3cc(-c4scnc4C)ccc3CNC(=O)[C@@H]3C[C@@H](O)CN3C(=O)[C@H](C(C)C)N3Cc4ccccc4C3=O)C2=O)ccc1Oc1ccc(C#N)cc1C(F)(F)F [ARV N000198] | 90
COc1cc(/C=C2\SC(=O)N(CCOCCOCCCCCOCCCCCOCCOCC(=O)N[C@H](C(=O)N3C[C@H](O)C[C@H]3C(=O)NCc3ccc(-c4scnc4C)cc3)C(C)(C)C)C2=O)ccc1Oc1ccc(C#N)cc1C(F)(F)F [ARV N000201] | 90
COc1cc(/C=C2\SC(=O)N(CCOCCC(=O)N[C@H](C(=O)N3C[C@@H](O)C[C@H]3C(=O)NCc3ccc(-c4scnc4C)cc3)C(C)(C)C)C2=O)ccc1Oc1ccc(C#N)cc1C(F)(F)F [ARV N000203] | 40
COc1cc(/C=C2\SC(=O)N(CCOCCCOCCCOc3cc(-c4scnc4C)ccc3CNC(=O)[C@@H]3C[C@@H](O)CN3C(=O)[C@H](C(C)C)N3Cc4ccccc4C3=O)C2=O)ccc1Oc1ccc(C#N)cc1C(F)(F)F [ARV N000222] | 90
COc1cc(/C=C2\SC(=O)N(CCOCCOCCOCCOCCOCC(=O)N[C@H](C(=O)N3C[C@H](O)C[C@H]3C(=O)NCc3ccc(-c4scnc4C)cc3)C(C)(C)C)C2=O)ccc1Oc1ccc(C#N)cc1C(F)(F)F [ARV N000223] | 80
COc1cc(/C=C2\SC(=O)N(CCOCCOCCCCCOCCCCCOCCOCCOc3cc(-c4scnc4C)ccc3CNC(=O)[C@@H]3C[C@@H](O)CN3C(=O)[C@H](C(C)C)N3Cc4ccccc4C3=O)C2=O)ccc1Oc1ccc(C#N)cc1C(F)(F)F [ARV N000232] | 60
COc1cc(/C=C2\SC(=O)N(CCOCCOCCOCCOCCOCCOCC(=O)N[C@H](C(=O)N3C[C@H](O)C[C@H]3C(=O)NCc3ccc(-c4scnc4C)cc3)C(C)(C)C)C2=O)ccc1Oc1ccc(C#N)cc1C(F)(F)F [ARV N000234] | 98
COc1cc(/C=C2\SC(=O)N(CCOCCOCCCOCCOCCOc3cc(-c4scnc4C)ccc3CNC(=O)[C@@H]3C[C@@H](O)CN3C(=O)[C@H](C(C)C)N3Cc4ccccc4C3=O)C2=O)ccc1Oc1ccc(C#N)cc1C(F)(F)F [ARV N000199] | 90
COc1cc(/C=C2\SC(=O)N(CCCCCOCCOCCC(=O)N[C@H](C(=O)N3CC(O)C[C@H]3C(=O)NCc3ccc(-c4scnc4C)cc3)C(C)(C)C)C2=O)ccc1Oc1ccc(C#N)cc1C(F)(F)F (stereo partly drawn) [ARV N000224] | 90

Now from value to molecule:

Dmax [%] | Compound
98 | COc1cc(/C=C2\SC(=O)N(CCOCCC(=O)N[C@H](C(=O)N3CC(O)C[C@H]3C(=O)NCc3ccc(-c4scnc4C)cc3)C(C)(C)C)C2=O)ccc1Oc1ccc(C#N)cc1C(F)(F)F (stereo partly drawn) [ARV N000020]
85 | COc1cc(/C=C2\SC(=O)N(CCOCCOCCOCCOCCOCCOc3cc(-c4scnc4C)ccc3CNC(=O)[C@@H]3C[C@@H](O)CN3C(=O)[C@H](C(C)C)N3Cc4ccccc4C3=O)C2=O)ccc1Oc1ccc(C#N)cc1C(F)(F)F [ARV N000220]
95 | COc1cc(/C=C2\SC(=O)N(CCOCCOCCCOCCOCCOCC(=O)N[C@H](C(=O)N3C[C@H](O)C[C@H]3C(=O)NCc3ccc(-c4scnc4C)cc3)C(C)(C)C)C2=O)ccc1Oc1ccc(C#N)cc1C(F)(F)F [ARV N000235]
80 | COc1cc(/C=C2\SC(=O)N(CCOCCOCCCCOCCCCOCCOCC(=O)N[C@H](C(=O)N3C[C@H](O)C[C@H]3C(=O)NCc3ccc(-c4scnc4C)cc3)C(C)(C)C)C2=O)ccc1Oc1ccc(C#N)cc1C(F)(F)F [ARV N000200]
98 | COc1cc(/C=C2\SC(=O)N(CCOCCOCCOCCOCCOc3cc(-c4scnc4C)ccc3CNC(=O)[C@@H]3C[C@@H](O)CN3C(=O)[C@H](C(C)C)N3Cc4ccccc4C3=O)C2=O)ccc1Oc1ccc(C#N)cc1C(F)(F)F [ARV N000219]

biological target: T1, ERRα; assay: ERRα degradation in ST-486 cells; type: cell-based; parameters: degration of ERRα in either MCF-7 cells or ST-486 cells; endogenous in cells; host or cells: ST-486; conditions: ST486, column C, read-out: ERRα Degradation Dmax (Estimated) ST-486 cells
Protocol: as §1, §2

Compound | Dmax [%]
COc1cc(/C=C2\SC(=O)N(CCOCCOCCCCOCCOCCOc3cc(-c4scnc4C)ccc3CNC(=O)[C@@H]3C[C@@H](O)CN3C(=O)[C@H](C(C)C)N3Cc4ccccc4C3=O)C2=O)ccc1Oc1ccc(C#N)cc1C(F)(F)F [ARV N000265] | 80
COc1cc(/C=C2\SC(=O)N(CCOCCOCCCCOCCCCOCCOCCOc3cc(-c4scnc4C)ccc3CNC(=O)[C@@H]3C[C@@H](O)CN3C(=O)[C@H](C(C)C)N3Cc4ccccc4C3=O)C2=O)ccc1Oc1ccc(C#N)cc1C(F)(F)F [ARV N000266] | 50
COc1cc(/C=C2\SC(=O)N(CCCCOCCOCCOCC(=O)N[C@H](C(=O)N3C[C@H](O)C[C@H]3C(=O)NCc3ccc(-c4scnc4C)cc3)C(C)(C)C)C2=O)ccc1Oc1ccc(C#N)cc1C(F)(F)F [ARV N000236] | 90
COc1cc(/C=C2\SC(=O)N(Cc3cccc(CC(=O)N[C@H](C(=O)N4C[C@H](O)C[C@H]4C(=O)NCc4ccc(-c5scnc5C)cc4)C(C)(C)C)c3)C2=O)ccc1Oc1ccc(C#N)cc1C(F)(F)F [ARV N000382] | 98
COc1cc(/C=C2\SC(=O)N(CCOCCOCCOCC(=O)N[C@H](C(=O)N3C[C@H](O)C[C@H]3C(=O)NCc3ccc(-c4scnc4C)cc3)C(C)(C)C)C2=O)ccc1Oc1ccccc1C(F)(F)F [ARV N000383] | 98
COc1cc(/C=C2\SC(=O)N(CCOCCOCCCCCOCCOCCOCC(=O)N[C@H](C(=O)N3C[C@H](O)C[C@H]3C(=O)NCc3ccc(-c4scnc4C)cc3)C(C)(C)C)C2=O)ccc1Oc1ccc(C#N)cc1C(F)(F)F [ARV N000267] | 80
COc1cc(/C=C2\SC(=O)N(CCCCOCCCCOCCCCCC(=O)N[C@H](C(=O)N3C[C@H](O)C[C@H]3C(=O)NCc3ccc(-c4scnc4C)cc3)C(C)(C)C)C2=O)ccc1Oc1ccc(C#N)cc1C(F)(F)F [ARV N000246] | 90
COc1cc(/C=C2\SC(=O)N(CCOCCOCCCCOCCOCCOCC(=O)N[C@H](C(=O)N3C[C@H](O)C[C@H]3C(=O)NCc3ccc(-c4scnc4C)cc3)C(C)(C)C)C2=O)ccc1Oc1ccc(C#N)cc1C(F)(F)F [ARV N000244] | 80

The next lines start with the values.

Dmax [%] | Compound
40 | COc1cc(/C=C2\SC(=O)N(CCCCOCCCCOCCCCCCC(=O)N[C@H](C(=O)N3C[C@H](O)C[C@H]3C(=O)NCc3ccc(-c4scnc4C)cc3)C(C)(C)C)C2=O)ccc1Oc1ccc(C#N)cc1C(F)(F)F [ARV N000245]
98 | COc1cc(/C=C2\SC(=O)N(Cc3ccccc3CC(=O)N[C@H](C(=O)N3C[C@H](O)C[C@H]3C(=O)NCc3ccc(-c4scnc4C)cc3)C(C)(C)C)C2=O)ccc1Oc1ccc(C#N)cc1C(F)(F)F [ARV N000381]
98 | COc1cc(/C=C2\SC(=O)N(Cc3ccc(CC(=O)N[C@H](C(=O)N4C[C@H](O)C[C@H]4C(=O)NCc4ccc(-c5scnc5C)cc4)C(C)(C)C)cc3)C2=O)ccc1Oc1ccc(C#N)cc1C(F)(F)F [ARV N000413]
